Tests used:
[1] = tested on: HT-22 mouse hippocampal neuronal cell line; experiment: Cytotoxicity of compounds alone, MTT assay, HT-22; type: cell-based; conditions: HT-22, 24 h, escalating concentrations
Protocol: (§1) In the study of neurotoxicity associated with AD, the HT22 mouse hippocampal neuronal cell line has been recognized as an effective cell model. HT22 cells were purchased from Merck-Sigma-Aldrich (SCC12, Madrid, Spain) and cultured in DMEM-F12 (Gibco, Fisher Scientific, Madrid, Spain) supplemented with foetal bovine serum (FBS, 10%) and 1% penicillin/streptomycin under standard conditions (37 °C, 5% CO2). The human dopaminergic cell line SH-SY5Y, in turn, has been widely used as an in vitro model to study the pathogenesis of PD associated with dopaminergic degeneration. Cells, acquired from the American Type Culture Collection (ATCC, Rockville, MD, USA, Ref.CRL-2266), were grown in RPMI medium (Gibco) supplemented with glutamine (2 mM), 10% FBS, and 1% penicillin/streptomycin under standard conditions. Semiconfluent cells (90%) were seeded on 96-well plates at 3 × 10^4 per well and incubated for 24 h before treatment.
(§2) Neuronal cultures, HT-22 and SH-SY5Y, seeded on 96-well plates were treated with LSL33, LSL34, and LSL60101 for 24 h, and viability was assessed using the MTT assay. […] Then, cultures were treated for 1h with LSL33 at 2 μM and LSL34 and LSL60101 at 1 μM. This dose was chosen based on previous studies. Subsequently, HT-22 cultures were exposed to glutamate (10 mM, Merck-Sigma), while SH-SY5Y cultures received 6-hydroxydopamine (6-OHDA, 35 μM, Merck-Sigma). The cells were then incubated for a minimum of 16 h. Finally, the cellular viability and nitrite production of the cultures were assessed.
(§3) The assessment of cell viability was conducted using the 3-(4,5-dimethylthiazol-2-yl)-5-(3-carboxymethoxyphenyl)-2-(4-sulfophenyl)-2H-tetrazolium (MTT) assay, following the instructions provided by the manufacturer (Roche Diagnostic, Darmstadt, Germany). […] The absorbance of the solution was measured at 595–650 nm using a spectrophotometer. The experiments were performed at least three times, and the results were expressed as a percentage of the control. […]

[2] = tested on: human dopaminergic cell line SH-SY5Y; experiment: Cytotoxicity of compounds alone, MTT assay, SH-SY5Y; type: cell-based; conditions: 24 h, escalating concentrations
Protocol: as §1, §2, §3

[3] = tested on: SH-SY5Y dopaminergic neurons; experiment: 6-OHDA-induced damage in SH-SY5Y cells (MTT viability, Griess nitrite); type: cell-based, human; conditions: 35 μM 6-OHDA; for neuroprotection (cell viability, MTT): 1 h pretreatment, LSL33 2 μM, LSL34 and LSL60101 1 μM; for nitrite production: culture supernatant
Protocol: as §1, §2
The assessment of cell viability was conducted using the 3-(4,5-dimethylthiazol-2-yl)-5-(3-carboxymethoxyphenyl)-2-(4-sulfophenyl)-2H-tetrazolium (MTT) assay, following the instructions provided by the manufacturer (Roche Diagnostic, Darmstadt, Germany). Briefly, after exposure to glutamate or 6-OHDA, the cell culture medium was replaced with 100 μL of fresh culture medium containing MTT solution (0.5 mg/mL) and incubated for 1 h. The medium was then removed, and the resulting formazan crystals were dissolved in dimethylsulfoxide (DMSO, Merck-Sigma). The absorbance of the solution was measured at 595–650 nm using a spectrophotometer. The experiments were performed at least three times, and the results were expressed as a percentage of the control.
Following the designated treatments, 100 μL of the cell culture supernatant was mixed with an equal volume of Griess reagent (consisting of 1% sulfanylamide and 0.1% naphthyl ethylene diamine in 5% phosphoric acid, sourced from Sigma-Aldrich, Madrid, Spain) at room temperature for 15 min. To determine the nitrite concentrations, a standard solution of sodium nitrite was employed. The absorbance of the mixture was measured at 492/540 nm using a microplate reader from Thermofisher (Madrid, Spain). The experiments were repeated a minimum of three times.
Figure 4 In vitro screening of I2-IR ligands: Assessment of neuroprotective and anti-inflammatory effects HT-22 cells exposed to 10mM glutamate for at least 16 h Similarly, SH-SY5Y was damaged with 35 μM 6-OHDA (35 μM). Some cultures were pretreated with the I2-IR ligands. Cell viability was evaluated using the MTT assay, and nitrite production in the cell supernatant was quantified using the Griess reaction. The reported values represent the mean ± SD obtained from triplicate determinations repeated at least three times. Statistical analysis was performed: * p ≤ 0.05, ** p ≤ 0.01, *** p ≤ 0.001 (versus glutamate- or 6-OHDA-treated cultures); ^# p ≤ 0.05, ^### p ≤ 0.001 (versus idazoxan-treated cultures); ^& p ≤ 0.1, ^&&& p ≤ 0.001 (versus 2-BFI-treated cultures).

[4] = tested on: glial cells: BV2 (microglia), C6 (astroglia), primary microglial and astroglial cultures; experiment: LPS-induced nitrite production in glial cultures (Griess); type: cell-based, mouse, rat; conditions: LPS 10 μg/mL, 24 h, ligands at 1 μM
Protocol: PD has been described in the same way. Therefore, we based our in vitro model of neuroinflammation on the use of two established glial cell lines, C6 and BV2, as well as primary glial cultures derived from the mouse cerebral cortex. […] When attaining semiconfluence, glial cells were seeded on 96-well plates at 3 × 10^4/well and incubated for 24 h before treatment. Primary astrocytes and microglia were obtained and cultured following a previously described protocol. In brief, the cerebral cortex was dissected, dissociated, and incubated with 0.25% trypsin and EDTA at 37 °C for 1 h. The tissue was then centrifuged, and the resulting pellet was washed with Hanks’ balanced salt solution (Invitrogen). The cells were plated on non-coated flasks and incubated under standard conditions for a minimum of 7 days. Subsequently, each type of glial cell was isolated to obtain pure cultures. To achieve this, the glial cells in the culture flasks were agitated on an orbital shaker for 4 h at 240 rpm and 37 °C. […]
To determine the inflammatory state, glial cells subcultured in 96-well plates were exposed to lipopolysaccharide (LPS, 10 μg/mL, Sigma). […] After 24 h in culture, nitrite production was evaluated.
Following the designated treatments, 100 μL of the cell culture supernatant was mixed with an equal volume of Griess reagent (consisting of 1% sulfanylamide and 0.1% naphthyl ethylene diamine in 5% phosphoric acid, sourced from Sigma-Aldrich, Madrid, Spain) at room temperature for 15 min. […] The absorbance of the mixture was measured at 492/540 nm using a microplate reader from Thermofisher (Madrid, Spain). […]
Figure 5 Role of I2-IR ligands in an in vitro model of neuroinflammation. Nitrite production in the supernatant of glial cells was assessed using the Griess reaction after a 24 h exposure to lipopolysaccharide (LPS, 10 μg/mL) in the presence of the indicated I2-IR ligands at a concentration of 1 μM. […]

**Q.** What does the source list for `c1ccc2oc(-c3ncc[nH]3)cc2c1` [LSL60101, reference compound]?
**A.** cytotoxicity (MTT viability) [1]: None of the compounds tested were cytotoxic; cytotoxicity (MTT viability) [2]: None of the compounds tested were cytotoxic; neuroprotection (cell viability, MTT) [3]: potent neuroprotective effects; nitrite production [3]: significant attenuation of the increased nitrite production; nitrite levels [4]: notable reduction in nitrite levels

**Q.** Which results are given for `Cl.c1ccc2oc(-n3ccnc3)cc2c1` [LSL34, 1-(Benzofuran-2-yl)-1H-imidazole hydrochloride]?
**A.** cytotoxicity (MTT viability) [1]: None of the compounds tested were cytotoxic; cytotoxicity (MTT viability) [2]: None of the compounds tested were cytotoxic; neuroprotection (cell viability, MTT) [3]: potent neuroprotective effects; nitrite production [3]: significant attenuation of the increased nitrite production; nitrite levels [4]: notable reduction in nitrite levels

**Q.** With `Cl.c1ccc2sc(-c3ncc[nH]3)cc2c1` [LSL33, 2-(Benzo[b]thiophene-2-yl)-1H-imidazole hydrochloride] as the compound, how does the “cytotoxicity (MTT viability)” value [1] read?
**A.** None of the compounds tested were cytotoxic

**Q.** And the “cytotoxicity (MTT viability)” value [2]?
**A.** None of the compounds tested were cytotoxic

**Q.** What about the “neuroprotection (cell viability, MTT)” value [3] of the same compound?
**A.** potent neuroprotective effects

**Q.** And the nitrite production [3]?
**A.** significant attenuation of the increased nitrite production

**Q.** And the nitrite levels [4]?
**A.** notable reduction in nitrite levels

— publication PMC10610545, “Preclinical Evaluation of an Imidazole-Linked Heterocycle for Alzheimer’s Disease” (Pharmaceutics, 2023)
